Laboratory results: publication PMC6934184, “Selective DNA-PKcs inhibition extends the therapeutic index of localized radiotherapy and chemotherapy” (The Journal of Clinical Investigation, 2019)

Biological target: T1, TAOK2 (TAO1) (Homo sapiens, UniProt Q9UL54)
T1 construct: purchased Thermo Fisher Scientific (Life Technologies) SelectScreen
Assay: SelectScreen Z'LYTE
Type: biochemical
Method in brief: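 SelectScreen broad panel; activity (Z'LYTE, Adapta) plus binding formats. ATP: Km app for CSF1R Z'LYTE; 10 for CAMK1 Adapta. Readout = % per kinase.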

T1 sequence (Q9UL54 whole entry): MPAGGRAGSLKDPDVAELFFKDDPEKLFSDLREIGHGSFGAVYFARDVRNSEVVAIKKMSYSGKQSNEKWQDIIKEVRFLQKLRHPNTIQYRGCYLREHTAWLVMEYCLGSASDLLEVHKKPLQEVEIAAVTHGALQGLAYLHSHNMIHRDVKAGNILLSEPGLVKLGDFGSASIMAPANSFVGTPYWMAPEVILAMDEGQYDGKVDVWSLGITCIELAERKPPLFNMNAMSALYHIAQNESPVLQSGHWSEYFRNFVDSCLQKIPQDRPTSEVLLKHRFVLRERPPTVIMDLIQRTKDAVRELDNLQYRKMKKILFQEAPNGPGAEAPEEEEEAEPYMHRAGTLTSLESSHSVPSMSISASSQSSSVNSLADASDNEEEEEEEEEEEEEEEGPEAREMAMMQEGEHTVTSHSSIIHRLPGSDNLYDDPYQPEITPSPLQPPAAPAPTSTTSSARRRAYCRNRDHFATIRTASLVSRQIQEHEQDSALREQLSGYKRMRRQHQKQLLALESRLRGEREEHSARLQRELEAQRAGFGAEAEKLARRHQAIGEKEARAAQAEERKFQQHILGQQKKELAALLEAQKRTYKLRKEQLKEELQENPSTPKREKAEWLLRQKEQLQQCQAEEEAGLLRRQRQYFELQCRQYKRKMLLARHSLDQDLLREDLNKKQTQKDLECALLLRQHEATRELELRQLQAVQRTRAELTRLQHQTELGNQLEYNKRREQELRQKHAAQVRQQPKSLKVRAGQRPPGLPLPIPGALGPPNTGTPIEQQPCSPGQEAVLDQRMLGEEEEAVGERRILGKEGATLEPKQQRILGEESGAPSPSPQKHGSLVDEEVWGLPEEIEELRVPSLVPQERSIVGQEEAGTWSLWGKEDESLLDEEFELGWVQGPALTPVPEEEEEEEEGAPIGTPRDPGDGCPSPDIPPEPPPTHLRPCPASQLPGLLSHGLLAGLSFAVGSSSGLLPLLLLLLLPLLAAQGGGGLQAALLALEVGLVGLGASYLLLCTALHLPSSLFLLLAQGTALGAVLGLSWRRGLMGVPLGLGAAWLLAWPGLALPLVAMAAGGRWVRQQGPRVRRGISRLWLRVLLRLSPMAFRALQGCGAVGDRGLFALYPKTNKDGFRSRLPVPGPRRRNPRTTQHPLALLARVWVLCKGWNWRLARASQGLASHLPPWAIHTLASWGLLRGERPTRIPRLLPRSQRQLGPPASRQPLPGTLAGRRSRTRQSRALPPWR

CN(C(=O)CN1CCOCC1)c1ccc2sc3c(-c4cccc5c(=O)cc(N6CC7CCC(C6)O7)oc45)cccc3c2c1 [NU5455]
inhibition at 1 µM: -5.1%
